Laboratory results as given in US10441668B2, “System and method for enhanced mass spectrometry imaging” (University Health Network, priority 2014, dated 2019).
Values joined by “and” are separate entries in the source; they are usually repeats but may differ in a detail not shown here. Equal entries are not always repeated.

Legend:
breast cancer tumors = assay: kinetic DCE magnetic resonance imaging of contrast agent passively targeted to breast cancer tumors in live mice; assay type: in vivo; conditions: intravenous injection into tail vein
Experimental: Referring now to FIGS. 3A and 3B, shown therein are the results of kinetic DCE magnetic resonance imaging of an exogenous contrast agent (in this example Gadoteridol) that was passively targeted to breast cancer tumors in live mice. In both cases, Gadoteridol was intravenously injected into the tail vein of mice under anesthesia with isofluorane.
A first MR image 305 was taken at the time of injection. […] A second MR image 310 was taken at 5 minutes post injection.
As indicated by legend 322, the maximum signal intensity appears to reach its peak in plot 320 after 5 minutes. The exogenous agent was seen to penetrate and diffuse into the tumor core from the peripheries of the tumor.
A second MR image 345 was taken at 5 minutes post injection.
To obtain the images shown below in FIGS. 5A-5C and FIGS. 6A-6C, SCID mice (from Harlan Laboratories) were inoculated in the lower mammary fat pad with 3×106 human MDA-MB-231 triple negative metastatic breast cancer cells and housed for 3 weeks to grow tumors up to 1 cm in diameter (caliper measurements). […] Throughout the imaging sessions, the animals' breathing was monitored using a respiratory pad and a respiratory tracking system (when imaged on the 1T Aspect or 7T Bruker MRI system, ˜30 min per imaging session).

[1] = test system: human MDA-MB-231 breast cancer tumors; assay: two-dimensional DESI-MS imaging of contrast agent distribution in excised human breast cancer tumor slices; assay type: in vivo, SCID mice; conditions: 5 minutes post injection, DESI-MS images vs H&E stained images
Experimental: All the DESI-MS experiments described herein were performed using a Thermo Fisher Scientific LTQ mass spectrometer (San Jose, Calif., USA). Data was acquired and processed using QualBrowser Xcalibur 2.0 (Thermo Fisher Scientific). Mass spectra were acquired as full scans, in the positive ion mode, over the mass to charge ratio range from m/z 500 to 900. Typical instrumental parameters used were 4.5 kV capillary voltage and 275° C. capillary temperature. An H2O-MeOH (1:1) solution was used as the spray solvent and delivered at the flow rate of 1.5 μL min-1. Methanol (MeOH) and ultra-pure water (H2O), both HPLC-MS grade, were purchased from Sigma Aldrich (Oakville, ON, Canada). The sprayer-to-surface distance was 1.0 mm, the sprayer to inlet distance was 6-8 mm, an incident spray was set at 54°, and a collection angle of 10° was used. […]
To obtain the images shown below in FIGS. 5A-5C and FIGS. 6A-6C, SCID mice (from Harlan Laboratories) were inoculated in the lower mammary fat pad with 3×106 human MDA-MB-231 triple negative metastatic breast cancer cells and housed for 3 weeks to grow tumors up to 1 cm in diameter (caliper measurements). […] Throughout the imaging sessions, the animals' breathing was monitored using a respiratory pad and a respiratory tracking system (when imaged on the 1T Aspect or 7T Bruker MRI system, ˜30 min per imaging session). […]

breast cancer tumor = assay: ICP-MS quantification of Gd in sections of breast cancer tumor after acid extraction; assay type: in vivo, mice; conditions: 200 μm thick tumor slice
Excerpt: Referring now to FIG. 10B, shown therein are the results of quantitative analysis of the distribution of an exogenous agent in a section of a breast cancer tumor. Here, ICP-MS was used to quantify the amount of Gadolinium (Gd) element in a 200 um thick section of the breast cancer tumor shown in FIG. 10A. The distribution of all three contributing Gadoteridol adducts (discussed above with reference to FIG. 4) are shown overlaid on an image of the tumor section.
To validate the ion abundances shown in the DESI-MS image 1000, a 200 μm think-slice of tumor was sectioned into three areas (1025, 1030 and 1040). The total tissue weight in each section was determined using an analytical balance and Gadoteridol was acid extracted for ICP-MS quantification. Gadoteridol was extracted using excess volume (e.g., 3.5 mls for every 1 mg tissue material in two rounds) of 10% perchloric acid through mixing and vortexing followed by a 30 min centrifugation at 21,000G taking the supernatant that was then diluted 5× with double distilled water. For ICP-MS analysis both the standard Gadoteridol solutions and the extracted samples were taken up in excess 2% nitric acid (1000 fold dilution) and were subjected to ICP-MS quantification using a Nexlon 350 ICP-MS (Perkin-Elmer).

For `CC(O)CN1CCN(CC(=O)[O-])CCN(CC(=O)[O-])CCN(CC(=O)[O-])CC1.[Gd+3]` (centres unmarked) [Gadoteridol], the “time post injection at which the tumor site exhibits maximal contrast enhancement (MR signal intensity peak)” value (breast cancer tumors) was 5 min and < 5 min, the “signal in necrotic region of the breast cancer tumor” value [1] was “no Gadoteridol signal” and the “absolute value of Gd element in tumor section, first area 1025” value (breast cancer tumor; first area 1025, ICP-MS) was 54 pg. For the same compound, the “absolute value of Gd element in tumor section, second area 1030” value (breast cancer tumor; second area 1030, ICP-MS) was 12.8 pg and the “absolute value of Gd element in tumor section, third area 1040” value (breast cancer tumor; third area 1040, ICP-MS) was 27.5 pg.
